Measured values reported in patent publication US4777269A, “7-Phenylacetic acid-4-alkyl-coumarinyl amides useful in fluorometric determination of the activity of hydrolases” (European Atomic Energy Community, priority 1986, dated 1988).
Converted amounts (≈) assume the structure as drawn. Like-named read-outs stand apart in the source and are kept apart here.

Tests used:
[1] = Solubility of the substrates in aqueous solution / buffer; format: physicochemical
Procedure: The values for the PFC test are easily reproduceable since the solution of the substrate (5% ethanol) can be prepared more accurately. For the preparation of solutions of the substrate without ethanol about 24 hours are need to dissolve 1 mg of the substrate in 1 l of the buffer. The fluorometric test is particularly suited for the determination of low activities of penicillin G-acylase.
The yields obtained in the preparation of the 7-phenylacetic acid-4-alkyl-coumarinyl amides of the invention, in particular of PFC and PMC, were in the range of from 50 to 80% at a high product purity (NMR, IR). […] However, this problem may be overcome by dissolving the substrate at first in pure ethanol and then diluting it with the corresponding buffer to a mixture with 5% ethanol. In this manner concentrations of 6 mg/l can be achieved.

penicillin G-acylase = penicillin G-acylase (Escherichia coli, UniProt P06875); assay: Kinetic study of enzymatic cleavage of the coumarinyl amides (Lineweafer-Burg-plot), fluorometric test; format: biochemical; settings: enzyme concentration constant, substrate concentration varied, 50 mM K-P-buffer, 5% ethanol
Sequence of penicillin G-acylase (P06875 290-846): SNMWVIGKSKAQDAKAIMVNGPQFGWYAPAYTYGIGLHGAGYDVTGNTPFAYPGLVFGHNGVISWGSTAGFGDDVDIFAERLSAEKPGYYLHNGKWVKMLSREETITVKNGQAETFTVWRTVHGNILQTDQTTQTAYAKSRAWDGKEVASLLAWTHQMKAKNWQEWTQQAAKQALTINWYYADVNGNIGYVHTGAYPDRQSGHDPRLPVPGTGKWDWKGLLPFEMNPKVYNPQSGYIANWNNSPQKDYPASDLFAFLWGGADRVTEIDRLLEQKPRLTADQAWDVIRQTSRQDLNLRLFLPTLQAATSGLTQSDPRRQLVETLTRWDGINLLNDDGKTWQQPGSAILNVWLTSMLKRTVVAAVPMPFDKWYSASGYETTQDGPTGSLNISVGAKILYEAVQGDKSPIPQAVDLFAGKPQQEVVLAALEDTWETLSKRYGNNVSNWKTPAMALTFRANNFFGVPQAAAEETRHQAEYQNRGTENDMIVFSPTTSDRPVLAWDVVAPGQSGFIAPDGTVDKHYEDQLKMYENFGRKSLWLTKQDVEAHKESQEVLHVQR
Sequence of penicillin G-acylase (P06875 27-235): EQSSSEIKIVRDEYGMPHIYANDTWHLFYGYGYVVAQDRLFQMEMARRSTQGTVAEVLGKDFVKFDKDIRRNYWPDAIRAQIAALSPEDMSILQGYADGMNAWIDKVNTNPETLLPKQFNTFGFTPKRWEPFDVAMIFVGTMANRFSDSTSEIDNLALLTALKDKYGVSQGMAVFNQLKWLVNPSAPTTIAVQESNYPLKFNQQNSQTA
Procedure: During the tests it has been observed repeatedly that the conversion rate of the reaction decreases at higher substrate concentrations. Therefore, research work for the determination of the kinetic parameters (Vmax and KM) of this reaction system had to be carried out.
The enzyme concentration in the test was kept constant and the substrate concentration (50 mM K-P-buffer 5% ethanol for both substrates) was varied.
The test mixture contains 3 μg/ml of the coumarinyl derivative as obtained in example 1, dissolved in 50 mM of a potassium-phosphate-buffer (pH 8, 5% ethanol).
At first a solution of the coumarinyl derivative in ethanol is prepared and diluted with the phosphate buffer according to the concentration values. 3 ml of the mixture are measured in a fluorescence cuvette in a spectral fluorometer (λ=440 nm for PMC; λ=495 nm for PFC) in regard to the background signal.
The reaction is started (while stirring) by the addition of 10 to 100 μl of the sample and followed. The activity of the enzyme can be estimated from the linear initial increase of the fluorescence/time-diagram after a corresponding calibration has been made.

[2] = aqueous solution, aqueous solutions, without ethanol, read-out: solubility in aqueous solutions
[3] = buffer with 5% ethanol, organic solvent or mixture, buffer mixture with 5% ethanol, read-out: achievable concentration after dissolving in pure ethanol and diluting with buffer

Row | Compound | solubility [1, 2] | solubility [1, 3] | kinetic behaviour at higher substrate concentrations (penicillin G-acylase)
1 | O=C(Cc1ccccc1)Nc1ccc2c(C(F)(F)F)cc(=O)oc2c1 [PFC, 7-phenyl-acetic acid-4-trifluoromethyl-coumarinyl amide] | < 1 µg/mL | 6 µg/mL (≈ 17.3 µM) | substrate inhibition
2 | Cc1cc(=O)oc2cc(NC(=O)Cc3ccccc3)ccc12 [PMC, 7-phenylacetic acid-4-methylcoumarinyl amide] | < 1 µg/mL | 6 µg/mL (≈ 20.5 µM) | substrate inhibition
